The source of these data is patent US8936930B2, “Red microalgae expressing exogenous polypeptides and methods of generating and utilizing same” (priority 2004, dated 2015).

The assay has as its system Porphyridium sp. Kind of assay: Antibiotic sensitivities of Porphyridium sp. (growth in ASW supplemented with antibiotic). Format: cell-based, Porphyridium sp. (UTEX 637). Also noted: key to Growth: ++: no inhibition of growth rate; +: slight inhibition of growth rate; −: no growth. The following applies: for Growth: Porphyridium sp. in ASW. As to the method: Porphyridium sp. (UTEX 637, from the culture collection of algae at the University of Texas at Austin) cells were cultured in artificial seawater (ASW; Jones et al. Plant Physiol. 16:636-643, 1963) supplemented with different antibiotic compounds for evaluating antibiotic sensitivities.

In the case of `NC[C@@H]1O[C@H](O[C@H]2[C@@H](O)[C@H](O[C@@H]3[C@@H](O)[C@H](N)C[C@H](N)[C@H]3O[C@H]3O[C@H](CO)[C@@H](O)[C@H](O)[C@H]3N)O[C@@H]2CO)[C@H](N)[C@@H](O)[C@@H]1O` [Paramomycin], the Growth entry (200 μg/ml) is “++”.

Turning to `Cc1c(N)nc([C@H](CC(N)=O)NC[C@H](N)C(N)=O)nc1C(=O)N[C@H](C(=O)N[C@H](C)[C@@H](O)[C@H](C)C(=O)N[C@H](C(=O)NCCC1=N[C@@H](c2nc(C(=O)NCCCCN=C(N)N)cs2)CS1)[C@@H](C)O)[C@@H](O[C@@H]1O[C@@H](CO)[C@@H](O)[C@H](O)[C@@H]1O[C@H]1O[C@H](CO)[C@@H](O)[C@H](OC(N)=O)[C@@H]1O)c1cnc[nH]1` [Zeocin], for the setting “zeocin 4 μg/ml, 17 days incubation in ASW medium”, the “Growth of untransformed (wild-type) Porphyridium sp. (in words)” value is on record as “no growth”. Under “zeocin 10 μg/ml”, the “Growth of wild type Porphyridium sp. (in words)” value is given as “no growth”. Moreover, the “Growth of Porphyridium sp. (in words)” value (zeocin 4-8 μg/ml) is “no growth”.

Take `CCC[C@@H]1C[C@@H](C(=O)N[C@@H]([C@H]2O[C@H](SC)[C@H](O)[C@@H](O)[C@H]2O)[C@@H](C)O)N(C)C1` [Lincomycin]: under “300 μg/ml”, the Growth entry was “++”.

Take `O=C(N[C@H](CO)[C@H](O)c1ccc([N+](=O)[O-])cc1)C(Cl)Cl` [Chloramphenicol]: the Growth entry (200 μg/ml) is recorded as “+” and the Growth entry (500 μg/ml) was “−”.

As for `CN[C@@H]1[C@H](O)[C@H](NC)[C@H]2O[C@@]3(O)C(=O)C[C@@H](C)O[C@H]3O[C@@H]2[C@H]1O` [Spectinomycin], the Growth result (300 μg/ml) is reported as “++”.

On to `CN(Cc1cnc2nc(N)nc(N)c2n1)c1ccc(C(=O)N[C@@H](CCC(=O)O)C(=O)O)cc1` [Methotrexate], for which the Growth result (80 μg/ml) is “++”.

Consider Phleomycin, for which the Growth result (10 μg/ml) was “++”.

For `CN[C@@H]1[C@@H](O)[C@@H](O[C@@H]2[C@@H](O)[C@H](O[C@H]3O[C@H]([C@@H](C)O)[C@@H](O)[C@H](O)[C@H]3N)[C@@H](N)C[C@H]2N)OC[C@]1(C)O` [G418], the Growth entry (2 μg/ml) was “+”.

On to Neomycin, for which the Growth entry (150 μg/ml) is “++”.

For `C[C@@H]1C[C@@H]([C@H](O)CC2CC(=O)NC(=O)C2)C(=O)[C@@H](C)C1` [Cyclohexhimide], the Growth entry (5 μM) is given as “−”.

As to `NC[C@H]1O[C@H](O[C@H]2[C@H](O)[C@@H](O[C@H]3O[C@H](CO)[C@@H](O)[C@H](N)[C@H]3O)[C@H](N)C[C@@H]2N)[C@H](O)[C@@H](O)[C@@H]1O` [Kanamycin], the Growth entry (700 μg/ml) was “++”.
